These results are taken from patent publication US20190343801A1, “COMPOSITIONS AND METHODS FOR CONTROLLING NATURAL KILLER CELL ACTIVATION AND FUNCTION” (BAR ILAN UNIVERSITY, priority 2017, published 2019).

Format in all cases: cell-based
Assay [1] relates to myosin light chain (MLC) phosphorylation on Serine 19. Kind of assay: Immunoblot of myosin light chain phosphorylation with anti-pMLC (Ser19). Conditions: 25 μM Y-27 for 15 min. The procedure:
YTS-2DL1 cells were treated with 25 μM of Y-27 for 15 min at 37° C., or left untreated. Cells were incubated at 37° C. with […] target cells for 5 min, 1 μM of JAS was added, and cells were incubated for 5 min. Cell lysates were analyzed by IB for phosphorylation of myosin light chain using anti-pMLC (Ser19) antibodies.
For analysis of whole cell lysates, 1-10×10^5 cells were used, and for IP experiments, 10-15×10^6 cells were used. Protein A/G plus-Agarose beads (Santa Cruz Biotechnology) were used for IP. Protein samples were resolved with sodium dodecyl sulfate-polyacrylamide gel electrophoresis (SDS-PAGE), transferred to nitrocellulose membrane, and immunoblotted with the appropriate primary antibodies. Immunoreactive proteins were detected with either anti-mouse or anti-rabbit horseradish peroxidase-coupled secondary antibody followed by detection by enhanced chemiluminescence (PerkinElmer).
For orientation: A western blot detects proteins with antibodies after separation by electrophoresis.

For another assay, the system named is YTS F-tractin GFP cells. Kind of assay: NKIS area of YTS F-tractin GFP cells spread over antibody-coated coverslips. To be noted: 25 μM Y-27 or 1 μM JAS; anti-CD28 or anti-KIR1. The method, then:
FIGS. 5E-5H. show analyses of NKIS area and ARF in the activating vs. inhibitory NKIS in the presence of Y-27632 (Y-27) inhibitor of myosin light chain (MLC) phosphorylation and/or JAS. In FIG. 5E is live cell imaging of YTS-2DL1 cells expressing F-tractin GFP treated with 25 μM Y-27 (anti-CD28: n=6 movies; anti-KIR1: n=6 movies). […] In FIG. 5F are YTS F-tractin GFP cells treated with 25 μM Y-27 or left untreated. Cells were seeded over coverslips pre-coated with anti-CD28 or anti-KIR1 and allowed to spread at 37° C. for 10 min before fixation, and 1 μM JAS was added 5 min after initial spreading. NKIS area was determined using ImageJ. […]
Chambered cover glasses (LabTek) were cleaned by treatment with 1 M HCl, 70% ethanol for 30 min and dried at 60° C. for 30 min. […] The NK and target cells in the conjugates were distinguished based on fluorescence signal, in which the target cells expressed mCherry and the NK cells expressed various YFP, CFP or GFP tagged proteins. […] The relative fluorescence intensity of the proteins at the synapse was determined by measuring the ratio between fluorescence intensity at the NKIS relative to a non-NKIS site using ImageJ. […]

The subject of a further assay is SHP-1. Kind of assay: PTP assay: SHP-1 catalytic activity (pNPP hydrolysis) after treatment of NK-target cell conjugates. Conditions: inhibited NK cells (YTS-2DL1 + 221-Cw4), untreated 100±2.8%; 1 μM JAS, 25 μM Y-27. The procedure:
YTS-2DL1 cells were pretreated with 25 μM Y-27 or left untreated. Cells were incubated at 37° C. with target cells for 5 min, 1 μM of JAS was added, and samples were incubated for 5 minutes before lysis. IP of SHP-1 was performed, and precipitates were incubated with pNpp. SHP-1 activity was determined by measuring absorbance at 405 nm. The graph represents rates of SHP-1 catalytic activity from three independent experiments.
In FIG. 8E, YTS-2DL1 cells were incubated at 37° C. with 221-Cw4 or Cw7 cells for 5 min, treated with 0.5 μM of CytD or left untreated, and SHP-1 activity was determined as detailed in the Materials and Methods. Graph summarizing percent of relative SHP-1 catalytic activity obtained by four independent experiments. Data are means±SEM.
SHP-1 catalytic activity was determined by measuring the hydrolysis of the exogenous substrate p-Nitrophenyl Phosphate (pNPP) by SHP-1, as previously described. NK cells (2-5×10^6) were incubated with target cells at ratio of 1:1, activated as described above, and lysed with passive ice-cold lysis buffer (1% Brij, 1% n-Octyl-b-D-glucoside, 50 mM Tris-HCl, pH 7.4, 150 mM NaCl, 5 mM ethylenediaminetetraacetic acid, and complete protease inhibitor tablets). Cell lysates were subjected to IP with anti-SHP-1 antibody. […] Reactions were terminated by adding 800 μl 1M NaOH, and SHP-1 activity was determined by measuring absorbance at 405 nm.

Structures can show the parent of a compound that is named as a salt.

For `C[C@@H](N)C1CCC(C(=O)Nc2ccncc2)CC1` (stereo partly drawn) [Formula Y-27, 4-[(1R)-1-aminoethyl]-N N-4-pyridinyl-trans-cyclohexanecarboxamide, dihydrochloride], the “MLC phosphorylation (pMLC S19)” value in assay [1] was “significant reduction in phosphorylation”. In the assay on YTS F-tractin GFP cells, the “NKIS area / NK contact area” value was “significantly enlarged NKIS area”. The SHP-1 catalytic activity with SHP-1 is given as 66.4±1.1%.
